Test results as given in ChEMBL document CHEMBL1201862, “PubChem BioAssay data set” (2004).
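Tested at 5 concentrations; 48 h exposure; 96-well plates; endpoints linearly interpolated, else capped at highest concentration. GI50 = concentration required for 50% inhibition of growth.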 Active and inactive are the calls of the source. No stated cut-off is given here; in the data, active = GI50 up to about 1.1 µM and inactive = higher.

Experiments:
Test in all cases: NCI tumour cell line growth inhibition, 48 h
SW-620 = test system: SW-620
SF-268 = test system: SF-268
MDA-MB-435 = test system: MDA-MB-435
U-251 = test system: U-251
T47D = test system: T47D
SNB-75 = test system: SNB-75
M14 = test system: M14
A549 = test system: A549
UO-31 = test system: UO-31
NCI-H522 = test system: NCI-H522
CCRF-CEM = test system: CCRF-CEM
HCT-15 = test system: HCT-15
A498 = test system: A498
ACHN = test system: ACHN
SNB-19 = test system: SNB-19
OVCAR-8 = test system: OVCAR-8
SR = test system: SR
HT-29 = test system: HT-29
Hs-578T = test system: Hs-578T
MCF7 = test system: MCF7

Compound | GI50 (SW-620) | GI50 (SF-268) | GI50 (MDA-MB-435) | GI50 (U-251) | GI50 (T47D) | GI50 (SNB-75) | GI50 (M14) | GI50 (A549) | GI50 (UO-31) | GI50 (NCI-H522) | GI50 (CCRF-CEM) | GI50 (HCT-15) | GI50 (A498) | GI50 (ACHN) | GI50 (SNB-19) | GI50 (OVCAR-8) | GI50 (SR) | GI50 (HT-29) | GI50 (Hs-578T) | GI50 (MCF7)
O=C(c1ccccc1)c1c(C(F)(F)F)[n+]([O-])c2ccccc2[n+]1[O-] | 1.48 µM (inactive) | 0.995 µM (active) | 0.798 µM (active) | 1.16 µM (inactive) | 0.396 µM (active) | 1.26 µM (inactive) | 2.58 µM (inactive) | 0.634 µM (active) | 0.879 µM (active) | 0.459 µM (active) | 0.495 µM (active) | 0.785 µM | 2.19 µM (inactive) | 1.36 µM (inactive) | 1.44 µM (inactive) | 0.543 µM (active) | 0.0738 µM (active) | 0.687 µM (active) | 3.15 µM (inactive) | 0.652 µM (active)
O=C(Cn1nnc(-c2ccccc2)n1)N/N=C/c1cn(Cc2ccc(Cl)cc2Cl)c2ccccc12 | 58.3 µM (inactive) | 31.8 µM (inactive) | > 100 µM (inactive) | > 100 µM (inactive) | 47.2 µM (inactive) | 45.1 µM (inactive) | > 100 µM (inactive) | 51.5 µM (inactive) | > 100 µM (inactive) | 43.1 µM (inactive) | 44.1 µM (inactive) | > 100 µM | 75.5 µM (inactive) | > 100 µM (inactive) | > 100 µM (inactive) | > 100 µM (inactive) | 63.1 µM (inactive) | > 100 µM (inactive) | > 100 µM (inactive) | > 100 µM (inactive)
CCOC(=O)C1(C(=O)OCC)C[C@]23OCCC(=O)[C@H]2[C@H]2C(=O)OC(C)(C)O[C@]23C1 | > 100 µM (inactive) | > 100 µM (inactive) | > 100 µM (inactive) | > 100 µM (inactive) | > 100 µM (inactive) | > 100 µM (inactive) | > 100 µM (inactive) | > 100 µM (inactive) | > 100 µM (inactive) | > 100 µM (inactive) | > 100 µM (inactive) | > 100 µM | > 100 µM (inactive) | > 100 µM (inactive) | > 100 µM (inactive) | > 100 µM (inactive) | > 100 µM (inactive) | > 100 µM (inactive) | > 100 µM (inactive) | > 100 µM (inactive)
CC(=O)OC12CC(C(F)(F)F)(C(F)(F)F)OC1(OC(C)=O)CC(C(F)(F)F)(C(F)(F)F)O2 (stereo not given) | 5.43 µM (inactive) | 1.58 µM (inactive) | 2.13 µM (inactive) | 1.63 µM (inactive) | 1.34 µM (inactive) | 11.1 µM (inactive) | 3.72 µM (inactive) | 1.26 µM (inactive) | 1.36 µM (inactive) | 1.24 µM (inactive) | 2.04 µM (inactive) | 11.5 µM | 2.14 µM (inactive) | 0.287 µM (active) | 3.15 µM (inactive) | 2.71 µM (inactive) | 2.55 µM (inactive) | 5.28 µM (inactive) | 13.3 µM (inactive) | 0.426 µM (active)
CCOC(=O)/C(=C\NCC(OCC)OCC)c1nc2ccccc2[nH]1 | 41.4 µM (inactive) | 32.6 µM (inactive) | 25 µM (inactive) | 35.5 µM (inactive) | 21.6 µM (inactive) | 22.2 µM (inactive) | 36.1 µM (inactive) | 42.9 µM (inactive) | 13.3 µM (inactive) | 21.4 µM (inactive) | 33.3 µM (inactive) | 10 µM | 48.6 µM (inactive) | 35.2 µM (inactive) | 67.3 µM (inactive) | 32.8 µM (inactive) | 18.6 µM (inactive) | 22.4 µM (inactive) | 35.6 µM (inactive) | 30.1 µM (inactive)
CCCC#CC(O)(C(=O)OC1CCN(C)CC1)C1CCCCC1 (stereo not given) | > 100 µM (inactive) | > 100 µM (inactive) | > 100 µM (inactive) | > 100 µM (inactive) | > 100 µM (inactive) | 57 µM (inactive) | 58.6 µM (inactive) | > 100 µM (inactive) | 29 µM (inactive) |  | > 100 µM (inactive) | > 100 µM | 94.6 µM (inactive) | > 100 µM (inactive) | > 100 µM (inactive) | > 100 µM (inactive) | > 100 µM (inactive) | 55.2 µM (inactive) | 14.1 µM (inactive) | > 100 µM (inactive)
C#CCOC(=O)C(N)CCSC (stereo not given) | > 100 µM (inactive) | > 100 µM (inactive) | > 100 µM (inactive) | > 100 µM (inactive) | > 100 µM (inactive) | > 100 µM (inactive) | > 100 µM (inactive) | > 100 µM (inactive) | > 100 µM (inactive) | > 100 µM (inactive) | > 100 µM (inactive) |  | > 100 µM (inactive) | > 100 µM (inactive) |  | > 100 µM (inactive) | > 100 µM (inactive) | > 100 µM (inactive) | > 100 µM (inactive) | > 100 µM (inactive)
c1ccc2cc(CNCCOCCOCCNCc3ccc4ccccc4c3)ccc2c1 | 1.91 µM (inactive) | 1.97 µM (inactive) | 1.8 µM (inactive) | 1.97 µM (inactive) | 2.74 µM (inactive) | 1.95 µM (inactive) | 1.95 µM (inactive) | 1.74 µM (inactive) |  | 1.83 µM (inactive) | 1.97 µM (inactive) | 1.94 µM | 1.71 µM (inactive) | 1.79 µM (inactive) | 2.31 µM (inactive) | 1.77 µM (inactive) | 1.26 µM (inactive) | 1.31 µM (inactive) | 1.57 µM (inactive) | 1.79 µM (inactive)
CCC1=CC(OCc2ccccc2)C(CCN(Cc2ccccc2)C(=O)OCc2ccccc2)C1 (stereo not given) | 18.4 µM (inactive) | 15.6 µM (inactive) | 17.1 µM (inactive) | 19.8 µM (inactive) | 6.01 µM (inactive) | 10.3 µM (inactive) | 13.7 µM (inactive) | 15.5 µM (inactive) | 14.6 µM (inactive) | 11.7 µM (inactive) |  | 13.6 µM | 16 µM (inactive) | 15.3 µM (inactive) | 14.8 µM (inactive) | 17.5 µM (inactive) | 17.3 µM (inactive) | 17.9 µM (inactive) | 11.5 µM (inactive) | 16.1 µM (inactive)
O=C(Nc1nnc(-c2ccc(Cl)cc2)o1)C(SC(=S)N1CCOCC1)c1ccccc1 (stereo not given) | 26 µM (inactive) |  | 17.6 µM (inactive) | 12.5 µM (inactive) | 21.7 µM (inactive) | 26.4 µM (inactive) | 16.1 µM (inactive) | 13.8 µM (inactive) | 4.97 µM (inactive) | 16.3 µM (inactive) | 10 µM (inactive) | 6.03 µM | 20.4 µM (inactive) | 12.4 µM (inactive) | 27 µM (inactive) | 19.7 µM (inactive) | 8.09 µM (inactive) | 18.8 µM (inactive) | 46.2 µM (inactive) | 22.3 µM (inactive)
CCOC1OC(CO[Si](C)(C)C(C)(C)C)C(O)CC1n1ccc(=O)[nH]c1=O (stereo not given) | 23.2 µM (inactive) | 30.8 µM (inactive) | > 100 µM (inactive) | > 100 µM (inactive) | 52 µM (inactive) | > 100 µM (inactive) | 26.8 µM (inactive) | 51.5 µM (inactive) | > 100 µM (inactive) | 20.6 µM (inactive) |  | 35.6 µM | > 100 µM (inactive) | > 100 µM (inactive) | > 100 µM (inactive) | 33.7 µM (inactive) | 42.6 µM (inactive) | 47.5 µM (inactive) | > 100 µM (inactive) | 31.5 µM (inactive)
COC(=O)C1=C(O)C(C(=O)OC)[C@]2(O)[C@H](C(=O)OC)[C@H]1C[C@@H](c1ccc(OC)cc1)[C@H]2C(=O)OC (stereo not given in full) | 17.7 µM (inactive) | 19.6 µM (inactive) | 5.97 µM (inactive) | 24.5 µM (inactive) | 22.3 µM (inactive) | 27.9 µM (inactive) | 23.8 µM (inactive) | 20.5 µM (inactive) | 11.3 µM (inactive) | 2.36 µM (inactive) |  | 21.9 µM | 7.74 µM (inactive) | 18 µM (inactive) | 29.4 µM (inactive) | 30.7 µM (inactive) | 16.1 µM (inactive) | 29.8 µM (inactive) | 19.9 µM (inactive) | 20.2 µM (inactive)
CC(C)(C)c1cc(OCc2nnc3sc(-c4ccc(Cl)cc4)nn23)c(Cl)cc1OCc1nnc2sc(-c3ccc(Cl)cc3)nn12 | 3.13 µM (inactive) | 6.97 µM (inactive) | 0.478 µM (active) | 5.79 µM (inactive) | 1.97 µM (inactive) | 2.19 µM (inactive) | 3.06 µM (inactive) | 4.21 µM (inactive) | 10.3 µM (inactive) | 0.564 µM (active) |  | 3.31 µM | 8.73 µM (inactive) | 5.4 µM (inactive) | 3.59 µM (inactive) | 3.93 µM (inactive) | 0.315 µM (active) | 30.8 µM (inactive) | 5.7 µM (inactive) | 3.17 µM (inactive)
CC1CC2OC(=O)C(C)C2CC2(C)C(OC3OC(CO)C(O)C(O)C3O)OCCC12 (stereo not given) | > 100 µM (inactive) | > 100 µM (inactive) | > 100 µM (inactive) | > 100 µM (inactive) | > 100 µM (inactive) | > 100 µM (inactive) | > 100 µM (inactive) | > 100 µM (inactive) |  | > 100 µM (inactive) | > 100 µM (inactive) | > 100 µM | > 100 µM (inactive) | > 100 µM (inactive) | > 100 µM (inactive) | > 100 µM (inactive) | > 100 µM (inactive) | > 100 µM (inactive) | > 100 µM (inactive) | > 100 µM (inactive)
